Reference: US8586300B2, “Genetic polymorphisms and infertility” (The University of North Carolina at Chapel Hill, priority 2008, dated 2013)

Experiments:
[1] = tested on: sperm; assay: Sperm motility (progressively motile sperm, hemocytometer) after betaine supplementation via drinking water; type: in vivo, mouse
Description: (§1) FIGS. 17A-17D are bar graphs showing the results of betaine supplementation on sperm concentration, motility and mitochondrial function in CHDH+/+ (WT), CHDH+/−, and CHDH−/− (KO) mice. […] Spermatozoa concentration was determined by counting cells using a hemocytometer. Results are presented as mean±SEM, n=9-11 animals per genotype. […] Motility assays were performed by counting the number of progressively motile sperm per total number of sperm in 5 squares of a hemocytometer. The results are presented as the mean % motility±SEM, p<0.001, n=8-9 animals per genotype. […] Absorbance values were normalized to the number of sperm assayed. All assays were performed in duplicate. The value for each animal is the mean of 4 assays (2 cauda epididymii, each assayed in duplicate per animal). Results are presented as the mean±SEM, p<0.05, n=5 animals/group. […] The number of cells that fluoresced red was counted in 5 random fields of vision for each sample and results are expressed as a percent of the total cells in those fields. Results are presented as mean±SEM, p<0.001, n=5 animals/group.
Eight to 10 week old CHDH^+/+ and CHDH^−/− male mice were anesthetized with Halothane (Henry Schein, Inc.). A V-shaped incision was made beginning at the penis and extending out to the midline of the body. Testis and epididymis were excised from the animal and immediately placed in a 6-well tissue culture dish containing approximately 1 ml of M16 media (Sigma) in a well. All media, plates and tubes used were warmed to 37° C. prior to the dissection. Any plate or tube containing sperm, once isolated, was kept at 37° C. with 5% CO2 for the duration of the experiment. The cauda epididymis was separated from the other structures and then placed in a 24-well plate containing 300 μl of fresh M16 media in each well. The cauda epididymis was then cut several times and the dish was incubated at 37° C. with 5% CO2 for 15 minutes. Sperm concentration was determined by counting cells with a hemocytometer. Percent motility was determined by counting the number of progressively motile sperm per total number of sperm present using a hemocytometer. “Progressively motile sperm” refers to sperm that swim forward in a somewhat straight line. Sperm that were moving, but that were swimming in circles were classified as non-progressively motile.
To determine whether sperm motility can be restored through betaine supplementation, CHDH−/− mice were given drinking water supplemented to 2% betaine for 38 days.

[2] = tested on: spermatozoa mitochondria; assay: JC-1 staining, mitochondrial membrane potential in sperm after betaine supplementation; type: in vivo, mouse; details: JC-1 staining of sperm
Description: as §1, with “animal).” for “animal). Results are presented as the mean±SEM, p<0.05, n=5 animals/group.”, “Results are presented as mean±SEM, p<0.001, n=5 animals/group.” left out
To detect changes in mitochondrial membrane polarization, JC-1 staining was performed on sperm harvested from cauda epididymis (see FIGS. 8-11 and 13). […] 20 μl of each stained sample was examined with a fluorescence microscope (Olympus BX50, Olympus America, Inc., Center Valley, Pa., United States of America) and large band epifluorescence filters. […] Five fields of vision were counted for each sample and results expressed as percent of total cells.

[3] = humans, dietary supplementation; cited from earlier work
[4] = tested on: spermatozoa mitochondria; assay: MTT assay of mitochondrial function in sperm after betaine supplementation; type: in vivo, mouse
Description: as §1
Sperm were isolated from the cauda epididymis as described above. An MTT (3-(4,5-dimethyl thiazol-2-yl)-2,5-diphenyl tetrazolium bromide) assay was conducted to measure mitochondrial function (Nasr-Esfahani, Aboutorabi et al. 2002) with the following modification: rather then visualizing positive MTT staining microscopically, MTT assays were conducted using a commercially available MIT assay kit (CellTiter 96 Non-radioactive Cell Proliferation Assay, Promega, Madison, Wis., United States of America) and cells were solubolized with the provided Solubolization/Stop Mix. 100 μL of isolated sperm were incubated in F10 media (Invitrogen Inc., Carlsbad, Calif., United States of America) in a 96-well plate with 15 μL of MTT solution at 37° C./5% CO2 for 2 hours. Following solubolization, the absorbance of each sample was read at a wavelength of 562 nm using a BIOTEK® plate reader (BioTek Instruments Inc., Winooski, Vt., United States of America). Absorbance was normalized to the number of sperm assayed.

[5] = tested on: sperm; assay: Sperm concentration (hemocytometer) after betaine supplementation; type: in vivo, mouse
Description: as §1, with “Results are presented as mean±SEM, p<0.001, n=5 animals/group.” left out
Eight to 10 week old CHDH^+/+ and CHDH^−/− male mice were anesthetized with Halothane (Henry Schein, Inc.). […] Sperm concentration was determined by counting cells with a hemocytometer. Percent motility was determined by counting the number of progressively motile sperm per total number of sperm present using a hemocytometer. […]

[6] = tested on: isolated rat hepatic mitochondria; details: inhibition of electron transport chain Complex I (rotenone) or Complex II (malonate); cited from earlier work

With `C[N+](C)(C)CC(=O)O` [betaine] the “effect on motility of spermatozoa” value ([1]; CHDH+/+ or CHDH+/- spermatozoa, betaine via drinking water for 42 days) was “nor was there any effect”, the sperm motility ([1]; CHDH+/- mice, betaine supplementation) was “unaffected” and the asthenospermic phenotype ([1]; CHDH-/- males, betaine via drinking water for 42 days) was “improved, but not fully rescued”. The progressive sperm motility ([1]; CHDH-/- mice, drinking water supplemented to 2% betaine for 38 days) was “approximately 30%”, the “effect on inner mitochondrial membrane potential (ΔΨm)” value [2] was “no effect” and the “plasma tHcy concentrations” value [3] was “effective in lowering”. For the same compound, the “decrease of MTT conversion” value ([4]; CHDH+/+ sperm, betaine supplementation) was 67%, the “MTT conversion compared to untreated CHDH+/+ sperm” value ([4]; CHDH+/+ spermatozoa, betaine via drinking water for 42 days) was “significantly decreased” and the “amount of MTT reduction” value ([4]; CHDH+/- or CHDH-/- spermatozoa, betaine supplementation) was “did not change”. The “changes in mitochondrial function, as measured by MTT assay and JC-1 staining” value ([4]; betaine via drinking water for 42 days, exception CHDH+/+ MTT conversion) was “No changes”, the “effect on sperm concentration” value ([5]; CHDH+/+, CHDH+/- or CHDH-/- mice, betaine supplementation) was “did not have any effect” and the “number of sperm produced” value ([5]; males of any CHDH genotype, betaine via drinking water for 42 days) was “did not alter”.

In the case of `O=C(O)CC(=O)O` [malonate], the choline-stimulated mitochondrial respiration [6] is given as “decreases”.

In the case of `C=C(C)[C@H]1Cc2c(ccc3c2O[C@@H]2COc4cc(OC)c(OC)cc4[C@@H]2C3=O)O1` [rotenone], the choline-stimulated mitochondrial respiration [6] is listed as “decreases”.
